According to PMC9610943, “Truncated Pleurocidin Derivative with High Pepsin Hydrolysis Resistance to Combat Multidrug-Resistant Pathogens” (Pharmaceutics, 2022):
Values after ≈ are worked out from the molar mass of the structure shown. Like-named read-outs stand apart in the source and are kept apart here. Where no end group is shown, it is not given here.

What was measured:
[1] = test system: P. cibarius HNCF44W (blaNDM-1+ tet(X6)); experiment: organism not typed; type: cell-based; conditions: P. cibarius HNCF44W (blaNDM-1+ tet(X6)), micro-broth dilution CLSI 2018, MHB, 37 °C, 16 to 18 h
Experimental: (§1) S. aureus ATCC 29213, E. coli ATCC 25922, S. enteritidis ATCC 13076 and A. baumannii ATCC 19609 were obtained from the American Type Culture Collection (ATCC). The remaining strains used in the experiment were all preserved strains in our laboratory. All strains were cultured in nutrient broth overnight to the logarithmic phase at 37 °C prior to each experiment.
(§2) The MICs of all drugs were determined by micro-broth dilution method according to CLSI 2018 guidelines. Briefly, a single colony of the bacterial strain was transferred to 1 mL of Mueller Hilton broth (MHB) and overnight at 37 °C and then 10 μL were cultured in a new 1 mL medium for 4 to 6 h, and then the bacterial culture at the logarithmic phase was diluted to 1 × 10^6 CFUs/mL. The assay was performed by adding 100 μL of each peptide solution at various concentrations (0.25 to 128 μg/mL) and 100 μL of diluted bacterial culture to different wells of a 96-well microtiter plate (Corning, NY, USA). After incubation at 37 °C for 16 to 18 h and then read its MIC value. MIC value is defined as the lowest drug concentration without visible bacteria.

MRSA 1530 = experiment: microbe, parasite or virus in culture; type: cell-based, Staphylococcus aureus; conditions: MRSA 1530, micro-broth dilution CLSI 2018, MHB, 37 °C, 16 to 18 h
Experimental: as §1, §2

MRSA T144 = experiment: microbe, parasite or virus in culture; type: cell-based, Staphylococcus aureus; conditions: MRSA T144, micro-broth dilution CLSI 2018, MHB, 37 °C, 16 to 18 h
Experimental: as §1, §2

[2] = test system: E. coli B2 (blaNDM-5 + mcr-1); experiment: microbe, parasite or virus in culture; type: cell-based; conditions: E. coli B2 (blaNDM-5 + mcr-1), micro-broth dilution CLSI 2018, MHB, 37 °C, 16 to 18 h
Experimental: as §1, §2

E. coli G92 (mcr-1) = experiment: microbe, parasite or virus in culture; type: cell-based; conditions: E. coli G92 (mcr-1), micro-broth dilution CLSI 2018, MHB, 37 °C, 16 to 18 h
Experimental: as §1, §2

S. aureus G16 (RIF^R) = experiment: microbe, parasite or virus in culture; type: cell-based
Experimental: as §1, §2

E. coli 1F28 (tet(X4)) = experiment: microbe, parasite or virus in culture; type: cell-based; conditions: E. coli 1F28 (tet(X4)), micro-broth dilution CLSI 2018, MHB, 37 °C, 16 to 18 h
Experimental: as §1, §2

A. baumannii ATCC 19609 = experiment: microbe, parasite or virus in culture; type: cell-based; conditions: A. baumannii ATCC 19609, micro-broth dilution CLSI 2018, MHB, 37 °C, 16 to 18 h
Experimental: as §1, §2

P. aeruginosa PA14 = experiment: microbe, parasite or virus in culture; type: cell-based
Experimental: as §1, §2

[3] = test system: P. aeruginosa (VIM + tmexCD1-torJ1); experiment: microbe, parasite or virus in culture; type: cell-based
Experimental: as §1, §2

E. coli C3 (blaNDM-1) = experiment: microbe, parasite or virus in culture; type: cell-based; conditions: E. coli C3 (blaNDM-1), micro-broth dilution CLSI 2018, MHB, 37 °C, 16 to 18 h
Experimental: as §1, §2

E. coli ATCC 25922 = experiment: microbe, parasite or virus in culture; type: cell-based
Experimental: as §1, §2

[4] = test system: E. faecalis A4 (VRE, VanA); experiment: microbe, parasite or virus in culture; type: cell-based
Experimental: as §1, §2

E. coli CP131 (mcr-3) = experiment: microbe, parasite or virus in culture; type: cell-based; conditions: E. coli CP131 (mcr-3), micro-broth dilution CLSI 2018, MHB, 37 °C, 16 to 18 h
Experimental: as §1, §2

E. coli B3-1 (tet(X4)) = experiment: microbe, parasite or virus in culture; type: cell-based; conditions: E. coli B3-1 (tet(X4)), micro-broth dilution CLSI 2018, MHB, 37 °C, 16 to 18 h
Experimental: as §1, §2

[5] = test system: S. aureus 215 (cfr + LZD^R); experiment: microbe, parasite or virus in culture; type: cell-based
Experimental: as §1, §2

[6] = test system: S. enteritidis ATCC 13076; experiment: microbe, parasite or virus in culture; type: cell-based
Experimental: as §1, §2

S. aureus ATCC 29213 = experiment: microbe, parasite or virus in culture; type: cell-based
Experimental: as §1, §2

E. coli G6 (blaNDM-5) = experiment: microbe, parasite or virus in culture; type: cell-based; conditions: E. coli G6 (blaNDM-5), micro-broth dilution CLSI 2018, MHB, 37 °C, 16 to 18 h
Experimental: as §1, §2

[7] = Staphylococcus aureus, read-out: MIC
[8] = Escherichia coli, read-out: MIC

Compound: CN(C)c1cc(NC(=O)CNC(C)(C)C)c(O)c2c1C[C@H]1C[C@H]3[C@H](N(C)C)C(O)=C(C(N)=O)C(=O)[C@@]3(O)C(O)=C1C2=O [Tig, tigecycline, reference compound]
- MIC ([1]; read-out: MIC): 64 µg/mL (≈ 109 µM)
- MIC (MRSA 1530; [7]): 1 µg/mL (≈ 1.71 µM)
- MIC (MRSA T144; [7]): 0.25 µg/mL (≈ 0.427 µM)
- MIC [2, 8]: 2 µg/mL
- MIC (E. coli G92 (mcr-1); [8]): 4 µg/mL (≈ 6.83 µM)
- MIC (S. aureus G16 (RIF^R); Staphylococcus aureus): < 0.0625 µg/mL
- MIC (E. coli 1F28 (tet(X4)); [8]): 16 µg/mL (≈ 27.3 µM)
- MIC (A. baumannii ATCC 19609; Acinetobacter baumannii, ATCC19609, read-out: MIC): 0.25 µg/mL (≈ 0.427 µM)
- MIC (P. aeruginosa PA14; Pseudomonas aeruginosa, PA14): < 0.0625 µg/mL
- MIC ([3]; Pseudomonas aeruginosa): < 0.0625 µg/mL
- MIC (E. coli C3 (blaNDM-1); [8]): 2 µg/mL (≈ 3.41 µM)
- MIC (E. coli ATCC 25922; Escherichia coli, ATCC25922): 0.125 µg/mL (≈ 0.213 µM)
- MIC ([4]; Enterococcus faecalis, VRE): < 0.0625 µg/mL
- MIC (E. coli CP131 (mcr-3); [8]): 2 µg/mL (≈ 3.41 µM)
- MIC (E. coli B3-1 (tet(X4)); [8]): 32 µg/mL (≈ 54.6 µM)
- MIC ([5]; Staphylococcus aureus): 0.25 µg/mL (≈ 0.427 µM)
- MIC ([6]; Salmonella enterica): 0.125 µg/mL (≈ 0.213 µM)
- MIC (S. aureus ATCC 29213; Staphylococcus aureus, ATCC29213): 0.125 µg/mL (≈ 0.213 µM)
- MIC (E. coli G6 (blaNDM-5); [8]): 2 µg/mL (≈ 3.41 µM)

Compound: GWGSFFKKAAHVGK [GK-1]
- MIC [1]: >128 µg/mL
- MIC (MRSA 1530): >128 µg/mL
- MIC (MRSA T144): >128 µg/mL
- MIC [2]: >128 µg/mL
- MIC (E. coli G92 (mcr-1)): >128 µg/mL
- MIC (S. aureus G16 (RIF^R); S. aureus G16 (RIF^R), micro-broth dilution CLSI 2018, MHB, 37 °C, 16 to 18 h): >128 µg/mL
- MIC (E. coli 1F28 (tet(X4))): >128 µg/mL
- MIC (A. baumannii ATCC 19609): >128 µg/mL
- MIC (P. aeruginosa PA14; P. aeruginosa PA14, micro-broth dilution CLSI 2018, MHB, 37 °C, 16 to 18 h): >128 µg/mL
- MIC ([3]; P. aeruginosa (VIM + tmexCD1-torJ1), micro-broth dilution CLSI 2018, MHB, 37 °C, 16 to 18 h): >128 µg/mL
- MIC (E. coli C3 (blaNDM-1)): >128 µg/mL
- MIC (E. coli ATCC 25922; E. coli ATCC 25922, micro-broth dilution CLSI 2018, MHB, 37 °C, 16 to 18 h): >128 µg/mL
- MIC ([4]; E. faecalis A4 (VRE, VanA), micro-broth dilution CLSI 2018, MHB, 37 °C, 16 to 18 h): >128 µg/mL
- MIC (E. coli CP131 (mcr-3)): >128 µg/mL
- MIC (E. coli B3-1 (tet(X4))): >128 µg/mL
- MIC ([5]; S. aureus 215 (cfr + LZD^R), micro-broth dilution CLSI 2018, MHB, 37 °C, 16 to 18 h): >128 µg/mL
- MIC ([6]; S. enteritidis ATCC 13076, micro-broth dilution CLSI 2018, MHB, 37 °C, 16 to 18 h): >128 µg/mL
- MIC (S. aureus ATCC 29213; S. aureus ATCC 29213, micro-broth dilution CLSI 2018, MHB, 37 °C, 16 to 18 h): >128 µg/mL
- MIC (E. coli G6 (blaNDM-5)): >128 µg/mL
